In general, % inhibition refers to how much of the control response was suppressed. The low end stands for a weak effect, the high end for a strong effect. Usually inhibition stands for how much of the control response was suppressed. Read a high inhibition as strong suppression.

The results in this text go back to patent US6469002B1, “Imidazolidine compounds” (Millennium Pharmaceuticals, Inc., priority 2001, dated 2002).

This test has as its target T1, CXCR3 (Homo sapiens, UniProt P49682).
T1 construct: expressed in transfected cells
T1 sequence (P49682 1-368): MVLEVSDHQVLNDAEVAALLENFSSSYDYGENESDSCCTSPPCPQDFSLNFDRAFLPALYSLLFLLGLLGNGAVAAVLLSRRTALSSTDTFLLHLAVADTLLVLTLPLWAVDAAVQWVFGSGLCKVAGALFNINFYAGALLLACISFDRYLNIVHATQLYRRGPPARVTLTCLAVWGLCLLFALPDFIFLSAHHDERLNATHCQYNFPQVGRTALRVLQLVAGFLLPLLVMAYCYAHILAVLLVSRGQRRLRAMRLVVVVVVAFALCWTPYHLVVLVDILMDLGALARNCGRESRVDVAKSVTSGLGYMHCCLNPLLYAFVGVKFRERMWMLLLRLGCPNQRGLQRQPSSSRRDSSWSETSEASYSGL
The test is described as follows: CXCR3/IP-10 radioligand binding (125I-IP-10 competition, CXCR3.L1/2 cell membranes). The note with it: test compound 10 μmol/L, 125I-labeled IP-10 binding to CXCR3.L1/2 transfectant cell membrane. The text has this:
The activity of the compounds of the present invention can be assessed using a suitable assay, such as a receptor binding assay, a chemotaxis assays, an extracellular acidification assay or a calcium flux assay (see, for example, Hesselgesser et al., J. Biol. Chem. 273(25):15687-15692 (1998) and WO 98/02151). For example, as described herein, small organic molecule antagonists of CXCR3/IP-10 binding have been identified utilizing cells engineered to express recombinant human CXCR3 (CXCR3.L1/2) and which bind ^125I-IP-10 and chemotax in response to IP-10, Mig or I-TAC. Specifically, a high through-put receptor binding assay, which monitors ^125I-IP-10 binding to CXCR3.L1/2 cell membranes, was used to identify small molecule antagonists which block binding of IP-10, Mig or I-TAC to CXCR3.
CXCR3.L1/2 cells were pelleted by centrifugation and stored at −80° C. The cells were lysed by thawing and resuspending at about 1.5×10^7 cells/ml in a hypotonic buffer (5 m mol/L HEPES (pH 7.2), 2 mmol/L EDTA, 10 μg/ml each leupeptin, aprotinin, and chymostatin, and 100 μg/ml PMSF (all from Sigma, St. Louis)). Nuclei and cellular debris was removed by centrifugation ([…], at 4° C.) for 10 min. The supematant was transferred to chilled centrifuge tubes (Nalge, Rochester, N.Y.) and the membrane fraction was recovered by centrifugation (25,000 g at 4° C.) for 45 min. The membrane pellet was resuspended in freezing buffer (10 mM HEPES (pH 7.2), 300 mmol/L Sucrose, 5 μg/ml each of leupeptin, aprotinin, and chymostatin, and 10 μg/ml PMSF). The total protein concentration was determined using a coomassie blue staining protein concentration assay kit (BioRad). The membrane preparation was aliquoted and stored at −80° C. until time of use.
CXCR3/IP-10 binding was performed in 96-well polypropylene plates (Costar) in a final volume of 0.1 ml of HBB buffer (50 mmol/L Hepes pH 7.4, 1 mmol/L CaCl2, 5 mmol/L MgCl2, 0.02% sodium azide, 0.5% BSA (bovine serum albumin)) containing 1 to 5 μg of CXCR3.L1/2 transfectant cell membrane protein and 0.05 to 0.2 nmol/L ^125I-labeled IP-10 (NEN, Boston, Mass.). Competition binding experiments were performed by including variable concentrations of unlabeled IP-10 or test compound. Nonspecific binding was determined following the addition of a 250 nmol/L unlabelled IP-10. Samples were incubated for 60 min at room temperature, and bound and free tracer (^125I-IP10) were separated by filtration through 96-well GF/B filterplates (Packard) presoaked in 0.3% polyethyleneimine. The filters were washed in HBB further supplemented with 0.5 mol/L NaCl, dried, and the amount of bound radioactivity determined by liquid scintillation counting. The competition is presented as the percent specific binding as calculated by 100×[(S-B)/(T-B)], where S is the radioactivity bound for each sample, B is background binding, and T is total bound in the absence of competitors. Duplicates were used throughout the experiments.

For `CCN(CCN1CCN(Cc2cccc3ccccc23)C1=C(C#N)C#N)Cc1ccc(CN2CCN(CCO)CC2)cc1` [Compound 11, 1-[2-{N-Ethyl-(4-(4-(2-hydroxyethyl)piperazinyl)methylbenzyl)amino}ethyl]-3-(1-naphthylmethyl)-2-imidazolidinylidenepropanedinitrile], the “% inhibition at 10 μmol/L” value (Table 5) was determined as 91%.

For `CN(CCN1CCN(Cc2cccc3ccccc23)C1=C(C#N)C#N)Cc1ccc(CN2CCCCC2)cc1` [Compound 5, 1-[2-{N-Methyl-N-(4-piperidinomethylbenzyl)amino}ethyl]-3-(1-naphthylmethyl)-2-imidazolidinylidenepropanedinitrile], the “% inhibition at 10 μmol/L” value (Table 5) was 99%.

Compound `CCN(CCN1CCN(Cc2cc(C)cc(C)c2)C1=C(C#N)C#N)Cc1ccc(CN2CCCCC2)cc1` [Compound 23, 1-[2-{N-Ethyl-N-(4-(1-piperidinomethyl)benzyl)amino}ethyl]-3-(3,5-dimethylbenzyl)-2-imidazolidinylidenepropanedinitrile] showed an inhibition at 10 µM (Table 6) of 97%.

Turning to `N#CC(C#N)=C1N(CCN(Cc2cccc(CN3CCCCC3)c2)C(=O)c2ccccc2)CCN1Cc1cccc2ccccc12` [Compound 13, 1-[2-{N-Benzoyl-N-(3-piperidinomethylbenzyl)amino}ethyl]-3-(1-naphthylmethyl)-2-imidazolidinylidenepropanedinitrile], the “% inhibition at 10 μmol/L” value (Table 5) was determined as 61%.

The compound `CCN(CCN1CCN(Cc2cccc3ccccc23)C1=C(C#N)C#N)Cc1cccc(CN2CCCCC2)c1` [Compound 17, 1-[2-{N-Ethyl-N-(3-piperidinomethylbenzyl)amino}ethyl]-3-(1-naphthylmethyl)-2-imidazolidinylidenepropanedinitrile] had an inhibition at 10 µM (Table 5) of 96%.

As for `CCCNCc1ccc(C(=O)N(CC)CCN2CCN(Cc3cc(Cl)cc(Cl)c3)C2=C(C#N)C#N)cc1` [Compound 30, 1-[2-{N-Ethyl-N-(4-(1-propylaminomethyl)benzoyl)amino}ethyl]-3-(3,5-dichlorobenzyl)-2-imidazolidinylidenepropanedinitrile], testing at 10 µM (Table 6) gave an inhibition of 73%.
